From ChEMBL document CHEMBL4028801, “A multifactorial approach to hepatobiliary transporter assessment enables improved therapeutic compound development” (Toxicol Sci, 2013) come the findings set out here.

Positions of bridges follow the written chain, without caps; N, C: chain ends. Non-standard residues stand in square brackets, D forms with d. Residues, ends and D or L forms follow the SMILES beside them. hArg = N=C(N)NCCCC[C@H](N)C(=O)O; Mpa = O=C(O)CCS

One assay addresses Bile salt export pump (Homo sapiens, UniProt O95342). The assay is described as follows: Inhibition of human BSEP overexpressed in Sf9 cell membrane vesicles assessed as uptake of [3H]-taurocholate in presence of ATP measured after 15 to 20 mins by membrane vesicle transport assay. It counts as ADME, cell-based.
Assay [1] addresses T1, ATP-binding cassette sub-family C member 4 (Homo sapiens, UniProt O15439).
T1 sequence (O15439 whole entry): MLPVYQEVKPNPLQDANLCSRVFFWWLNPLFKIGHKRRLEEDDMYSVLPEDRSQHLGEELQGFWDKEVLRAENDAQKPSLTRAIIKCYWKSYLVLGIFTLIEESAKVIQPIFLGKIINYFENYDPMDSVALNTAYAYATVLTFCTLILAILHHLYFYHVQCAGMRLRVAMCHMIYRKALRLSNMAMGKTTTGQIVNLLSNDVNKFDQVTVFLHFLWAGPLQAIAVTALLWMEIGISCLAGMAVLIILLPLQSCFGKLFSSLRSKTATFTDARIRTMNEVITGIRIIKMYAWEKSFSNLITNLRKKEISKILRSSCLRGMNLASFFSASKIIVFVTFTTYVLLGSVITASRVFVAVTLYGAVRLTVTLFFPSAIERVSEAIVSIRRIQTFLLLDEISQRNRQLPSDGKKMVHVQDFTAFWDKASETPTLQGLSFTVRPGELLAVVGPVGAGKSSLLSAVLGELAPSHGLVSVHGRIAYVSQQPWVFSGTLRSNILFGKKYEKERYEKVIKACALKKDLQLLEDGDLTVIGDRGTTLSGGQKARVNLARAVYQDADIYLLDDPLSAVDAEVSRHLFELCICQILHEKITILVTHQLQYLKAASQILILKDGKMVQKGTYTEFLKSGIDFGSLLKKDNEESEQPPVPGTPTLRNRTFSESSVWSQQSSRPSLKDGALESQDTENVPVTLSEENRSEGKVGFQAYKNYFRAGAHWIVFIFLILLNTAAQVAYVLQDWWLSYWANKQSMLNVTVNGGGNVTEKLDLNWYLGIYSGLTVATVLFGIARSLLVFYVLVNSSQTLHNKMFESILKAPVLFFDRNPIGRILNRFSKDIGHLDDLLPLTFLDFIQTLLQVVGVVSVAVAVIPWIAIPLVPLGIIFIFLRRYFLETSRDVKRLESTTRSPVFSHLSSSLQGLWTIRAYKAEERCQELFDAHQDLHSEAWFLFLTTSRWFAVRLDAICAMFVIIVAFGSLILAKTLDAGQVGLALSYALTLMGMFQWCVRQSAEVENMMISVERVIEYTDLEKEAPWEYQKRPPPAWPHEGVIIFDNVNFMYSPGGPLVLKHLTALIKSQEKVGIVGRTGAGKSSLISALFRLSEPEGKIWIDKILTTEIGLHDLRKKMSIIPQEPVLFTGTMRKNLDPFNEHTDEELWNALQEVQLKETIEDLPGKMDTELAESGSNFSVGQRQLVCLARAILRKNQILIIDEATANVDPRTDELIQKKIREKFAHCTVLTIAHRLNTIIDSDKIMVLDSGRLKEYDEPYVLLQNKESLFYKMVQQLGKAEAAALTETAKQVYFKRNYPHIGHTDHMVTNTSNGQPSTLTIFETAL
The assay is described as follows: Inhibition of human MRP4 overexpressed in Sf9 cell membrane vesicles assessed as uptake of [3H]-estradiol-17beta-D-glucuronide in presence of ATP and GSH measured after 20 mins by membrane vesicle transport assay. It counts as ADME, cell-based.

Assay [2] concerns the target ATP-binding cassette sub-family C member 2 (Homo sapiens, UniProt Q92887). The assay is described as follows: Inhibition of human MRP2 overexpressed in Sf9 cell membrane vesicles assessed as uptake of [3H]-estradiol-17beta-D-glucuronide in presence of ATP and GSH measured after 20 mins by membrane vesicle transport assay.
In assay [3] the target is ATP-binding cassette sub-family C member 3 (Homo sapiens, UniProt O15438). The experiment in a line: Inhibition of human MRP3 overexpressed in Sf9 insect cell membrane vesicles assessed as uptake of [3H]-estradiol-17beta-D-glucuronide in presence of ATP and GSH measured after 10 mins by membrane vesicle transport assay. It counts as ADME, cell-based.
Chain of ATP-binding cassette sub-family C member 3 (O15438 whole entry): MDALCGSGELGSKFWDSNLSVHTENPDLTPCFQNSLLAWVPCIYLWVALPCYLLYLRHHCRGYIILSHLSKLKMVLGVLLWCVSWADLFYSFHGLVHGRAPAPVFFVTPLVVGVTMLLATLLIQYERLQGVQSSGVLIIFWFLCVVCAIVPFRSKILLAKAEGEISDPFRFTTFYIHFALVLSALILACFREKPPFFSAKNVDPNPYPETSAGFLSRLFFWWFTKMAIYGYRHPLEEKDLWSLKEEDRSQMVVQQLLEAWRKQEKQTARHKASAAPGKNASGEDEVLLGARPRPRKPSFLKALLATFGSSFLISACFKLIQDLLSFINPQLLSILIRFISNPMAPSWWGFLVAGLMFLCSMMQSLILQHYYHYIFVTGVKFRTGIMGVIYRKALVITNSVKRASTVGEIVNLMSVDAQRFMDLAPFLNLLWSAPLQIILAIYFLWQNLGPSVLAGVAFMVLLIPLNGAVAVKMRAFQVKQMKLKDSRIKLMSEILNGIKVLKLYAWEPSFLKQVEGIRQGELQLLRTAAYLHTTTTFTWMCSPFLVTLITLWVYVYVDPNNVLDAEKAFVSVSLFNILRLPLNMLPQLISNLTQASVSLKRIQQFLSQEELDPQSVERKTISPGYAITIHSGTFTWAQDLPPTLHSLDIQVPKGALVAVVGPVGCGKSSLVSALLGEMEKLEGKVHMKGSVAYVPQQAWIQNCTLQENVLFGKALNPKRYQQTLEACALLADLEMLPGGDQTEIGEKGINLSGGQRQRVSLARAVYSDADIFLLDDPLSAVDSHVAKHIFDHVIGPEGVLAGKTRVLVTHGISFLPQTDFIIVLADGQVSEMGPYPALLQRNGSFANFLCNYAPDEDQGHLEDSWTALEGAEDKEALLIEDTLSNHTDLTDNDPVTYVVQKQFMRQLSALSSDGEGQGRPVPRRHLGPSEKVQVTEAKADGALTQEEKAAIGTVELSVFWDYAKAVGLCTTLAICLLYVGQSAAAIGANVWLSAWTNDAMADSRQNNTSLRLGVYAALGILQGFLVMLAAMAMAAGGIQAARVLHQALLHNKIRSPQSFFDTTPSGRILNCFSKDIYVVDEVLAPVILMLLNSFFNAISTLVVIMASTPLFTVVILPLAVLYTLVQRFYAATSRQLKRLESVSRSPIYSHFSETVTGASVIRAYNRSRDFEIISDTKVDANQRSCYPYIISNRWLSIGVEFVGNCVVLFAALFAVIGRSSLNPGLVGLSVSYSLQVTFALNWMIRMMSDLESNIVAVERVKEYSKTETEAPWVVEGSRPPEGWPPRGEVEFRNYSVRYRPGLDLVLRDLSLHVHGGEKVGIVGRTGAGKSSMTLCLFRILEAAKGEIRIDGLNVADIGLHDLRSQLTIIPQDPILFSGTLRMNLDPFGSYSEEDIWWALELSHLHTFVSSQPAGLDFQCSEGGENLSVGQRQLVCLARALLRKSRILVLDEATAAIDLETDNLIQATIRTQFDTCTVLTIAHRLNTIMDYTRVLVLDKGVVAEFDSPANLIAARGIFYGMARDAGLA

Chain of Bile salt export pump (O95342 whole entry): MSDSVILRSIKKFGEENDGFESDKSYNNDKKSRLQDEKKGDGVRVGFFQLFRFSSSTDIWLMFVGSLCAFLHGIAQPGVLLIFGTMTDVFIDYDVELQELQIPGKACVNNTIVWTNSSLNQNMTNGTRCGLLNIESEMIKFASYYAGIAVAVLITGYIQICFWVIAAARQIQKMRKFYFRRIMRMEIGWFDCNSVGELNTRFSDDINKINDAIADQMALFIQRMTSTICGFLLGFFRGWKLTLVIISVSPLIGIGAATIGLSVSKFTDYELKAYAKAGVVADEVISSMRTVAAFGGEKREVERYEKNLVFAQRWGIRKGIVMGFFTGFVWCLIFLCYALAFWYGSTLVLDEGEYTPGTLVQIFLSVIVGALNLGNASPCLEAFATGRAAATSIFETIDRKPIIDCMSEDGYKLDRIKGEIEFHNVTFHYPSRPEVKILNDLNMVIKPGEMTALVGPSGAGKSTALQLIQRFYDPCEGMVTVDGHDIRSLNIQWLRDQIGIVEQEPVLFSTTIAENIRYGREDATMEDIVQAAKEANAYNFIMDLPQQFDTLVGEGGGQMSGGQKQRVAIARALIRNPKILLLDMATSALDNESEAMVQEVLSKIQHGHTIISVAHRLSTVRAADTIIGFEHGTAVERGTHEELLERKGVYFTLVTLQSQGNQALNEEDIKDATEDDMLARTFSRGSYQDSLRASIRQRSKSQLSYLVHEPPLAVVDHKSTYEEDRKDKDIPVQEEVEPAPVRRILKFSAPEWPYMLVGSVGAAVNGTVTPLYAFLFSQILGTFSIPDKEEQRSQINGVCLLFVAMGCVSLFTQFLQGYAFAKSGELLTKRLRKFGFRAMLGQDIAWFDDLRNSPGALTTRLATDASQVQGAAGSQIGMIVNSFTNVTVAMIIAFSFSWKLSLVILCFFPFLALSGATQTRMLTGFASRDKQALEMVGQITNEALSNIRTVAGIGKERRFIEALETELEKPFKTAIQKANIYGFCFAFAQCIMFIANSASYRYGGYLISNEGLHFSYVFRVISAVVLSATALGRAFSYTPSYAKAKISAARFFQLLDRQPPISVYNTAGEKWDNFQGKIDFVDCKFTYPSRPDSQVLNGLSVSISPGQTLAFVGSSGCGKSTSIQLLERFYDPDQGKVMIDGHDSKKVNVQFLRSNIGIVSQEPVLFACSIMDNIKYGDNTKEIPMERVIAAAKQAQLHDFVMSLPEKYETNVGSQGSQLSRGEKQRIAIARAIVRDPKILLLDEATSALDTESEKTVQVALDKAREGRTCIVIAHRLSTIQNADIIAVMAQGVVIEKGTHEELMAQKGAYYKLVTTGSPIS
Chain of ATP-binding cassette sub-family C member 2 (Q92887 whole entry): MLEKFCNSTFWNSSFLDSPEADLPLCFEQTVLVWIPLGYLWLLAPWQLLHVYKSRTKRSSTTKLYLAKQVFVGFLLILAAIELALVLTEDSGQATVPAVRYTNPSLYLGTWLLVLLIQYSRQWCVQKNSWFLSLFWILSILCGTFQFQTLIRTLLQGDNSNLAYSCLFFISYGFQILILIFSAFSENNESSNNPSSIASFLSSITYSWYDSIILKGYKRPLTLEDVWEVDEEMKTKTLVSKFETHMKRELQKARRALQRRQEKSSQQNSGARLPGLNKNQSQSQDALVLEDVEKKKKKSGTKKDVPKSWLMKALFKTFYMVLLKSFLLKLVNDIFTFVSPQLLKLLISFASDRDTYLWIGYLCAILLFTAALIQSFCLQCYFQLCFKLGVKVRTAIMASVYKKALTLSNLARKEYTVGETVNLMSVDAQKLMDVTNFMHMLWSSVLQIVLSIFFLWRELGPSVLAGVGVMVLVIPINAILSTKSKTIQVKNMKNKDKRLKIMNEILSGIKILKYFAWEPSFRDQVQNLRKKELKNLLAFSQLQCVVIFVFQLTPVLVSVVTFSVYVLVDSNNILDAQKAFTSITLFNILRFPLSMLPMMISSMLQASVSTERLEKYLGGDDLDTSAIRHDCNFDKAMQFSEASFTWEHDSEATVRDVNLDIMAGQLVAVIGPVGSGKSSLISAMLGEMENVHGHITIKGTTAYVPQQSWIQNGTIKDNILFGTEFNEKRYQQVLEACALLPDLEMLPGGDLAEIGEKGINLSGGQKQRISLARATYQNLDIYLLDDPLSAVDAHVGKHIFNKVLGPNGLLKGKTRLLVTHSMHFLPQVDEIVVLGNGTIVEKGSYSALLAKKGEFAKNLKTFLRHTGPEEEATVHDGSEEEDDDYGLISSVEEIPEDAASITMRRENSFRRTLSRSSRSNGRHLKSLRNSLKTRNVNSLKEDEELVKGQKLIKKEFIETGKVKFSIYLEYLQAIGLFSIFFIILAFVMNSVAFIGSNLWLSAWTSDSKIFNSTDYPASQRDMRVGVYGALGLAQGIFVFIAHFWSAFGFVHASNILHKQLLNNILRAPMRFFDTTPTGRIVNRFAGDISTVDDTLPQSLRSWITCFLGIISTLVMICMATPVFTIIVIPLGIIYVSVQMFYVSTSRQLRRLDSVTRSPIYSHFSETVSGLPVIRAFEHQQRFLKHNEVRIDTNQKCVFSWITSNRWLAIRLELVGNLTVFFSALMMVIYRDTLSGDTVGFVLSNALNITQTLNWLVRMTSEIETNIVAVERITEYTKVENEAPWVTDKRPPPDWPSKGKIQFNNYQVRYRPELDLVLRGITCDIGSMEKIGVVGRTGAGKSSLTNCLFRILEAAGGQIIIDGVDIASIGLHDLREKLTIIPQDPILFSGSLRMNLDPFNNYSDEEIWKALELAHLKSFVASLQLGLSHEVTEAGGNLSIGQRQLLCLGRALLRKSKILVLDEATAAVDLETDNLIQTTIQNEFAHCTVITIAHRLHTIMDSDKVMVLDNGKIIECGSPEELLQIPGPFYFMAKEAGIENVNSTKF

Turning to `C[C@H]1O[C@H](O[C@H]2[C@H](O)[C@@H](O)[C@@H](O[C@H]3[C@H](O)[C@@H](O)C(O)O[C@@H]3CO)O[C@@H]2CO)[C@H](O)[C@@H](O)[C@@H]1N[C@H]1C=C(CO)[C@@H](O)[C@H](O)[C@H]1O` (stereo not given in full) [ACARBOSE], the IC50 (on Bile salt export pump; in assay [1]; in assay [2]; in assay [3]) was more than 133 µM in each case.
For `C#C[C@]1(O)CC[C@H]2[C@@H]3CCC4=CC(=O)CC[C@@H]4[C@H]3CC[C@@]21CC` [LEVONORGESTREL], the IC50 (on Bile salt export pump; in assay [1]; in assay [2]; in assay [3]) was more than 133 µM throughout.
`Nc1nc2ccc(OC(F)(F)F)cc2s1` [RILUZOLE]: the IC50 (at Bile salt export pump; in assay [1]; in assay [2]; in assay [3]) was more than 133 µM in each case.
Take `CCCCC(=O)N(Cc1ccc(-c2ccccc2-c2nnn[nH]2)cc1)[C@H](C(=O)O)C(C)C`: the IC50 (on Bile salt export pump; in assay [1]; in assay [2]; in assay [3]) was more than 133 µM in each case.
As to `Cc1cccc(Nc2ccccc2C(=O)O)c1C` [MEFENAMIC ACID], the IC50 (on Bile salt export pump; in assay [1]; in assay [2]; in assay [3]) was more than 133 µM in each case.
As to `CNC1=Nc2ccc(Cl)cc2C(c2ccccc2)=[N+]([O-])C1` [CHLORDIAZEPOXIDE], the IC50 (commonly the concentration that gives 50% inhibition) at Bile salt export pump is 44.1 µM; in assay [1], more than 133 µM; in assay [2] it was more than 133 µM; in assay [3], more than 133 µM.
For `CC[C@H](C)C(=O)O[C@H]1CCC=C2C=C[C@H](C)[C@H](CC[C@@H]3C[C@@H](O)CC(=O)O3)[C@H]21` [MEVASTATIN], the IC50 on Bile salt export pump is 27 µM; in assay [1], more than 133 µM; in assay [2], more than 133 µM; in assay [3] it was more than 133 µM.
`S=P(N1CC1)(N1CC1)N1CC1` [THIOTEPA]: the IC50 (on Bile salt export pump; in assay [1]; in assay [2]; in assay [3]) was more than 133 µM in each case.
For `c1cnc2cc3c(cc2n1)[C@@H]1CNC[C@H]3C1`, the IC50 (on Bile salt export pump; in assay [1]; in assay [2]; in assay [3]) was more than 133 µM throughout.
On to `Nc1nc(Cl)nc2c1ncn2[C@@H]1O[C@H](CO)[C@@H](O)[C@@H]1F` [CLOFARABINE], for which the IC50 (on Bile salt export pump; in assay [1]; in assay [2]; in assay [3]) was more than 133 µM in each case.
Consider `CN(C)CCC=C1c2ccccc2CCc2ccccc21` [AMITRIPTYLINE], for which the IC50 (at Bile salt export pump; in assay [1]; in assay [2]; in assay [3]) was more than 133 µM in each case.
In the case of `CN(C)CCCN1c2ccccc2Sc2ccc(Cl)cc21` [CHLORPROMAZINE], the IC50 (on Bile salt export pump; in assay [1]; in assay [2]; in assay [3]) was more than 133 µM in each case.
On to `Cc1cccc(N(C)C(=S)Oc2ccc3ccccc3c2)c1` [TOLNAFTATE], for which the IC50 (on Bile salt export pump; in assay [1]; in assay [2]; in assay [3]) was more than 133 µM in each case.
As to `NC(=O)N1c2ccccc2CC(=O)c2ccccc21` [OXCARBAZEPINE], the IC50 (at Bile salt export pump; in assay [1]; in assay [2]; in assay [3]) was more than 133 µM in each case.
With `C[C@@H]1C/C=C/C=C/C=C/C=C/[C@H](O[C@@H]2O[C@H](C)[C@@H](O)[C@H](N)[C@@H]2O)C[C@@H]2O[C@](O)(C[C@@H](O)C[C@H]3O[C@@H]3/C=C/C(=O)O1)C[C@H](O)[C@H]2C(=O)O` [NATAMYCIN], the half-maximal inhibitory concentration (IC50) (on Bile salt export pump; in assay [1]; in assay [2]; in assay [3]) was more than 133 µM each time.
Regarding `NCc1ccc(S(N)(=O)=O)cc1` [MAFENIDE ACETATE], the IC50 (at Bile salt export pump; in assay [1]; in assay [2]; in assay [3]) was more than 133 µM throughout.
With `COc1ccc(Cc2nccc3cc(OC)c(OC)cc23)cc1OC` [PAPAVERINE], the IC50 is more than 133 µM at Bile salt export pump, 23.1 µM in assay [1], more than 133 µM in assay [2] and more than 133 µM in assay [3].
On to `CC(=O)O[C@H]1C[C@@H]2CC[C@@H]3[C@H](CC[C@@]4(C)[C@H]3C[C@H]([N+]3(C)CCCCC3)[C@@H]4OC(C)=O)[C@@]2(C)C[C@@H]1[N+]1(C)CCCCC1` [PANCURONIUM BROMIDE], for which the concentration for half-maximal inhibition (IC50) (on Bile salt export pump; in assay [1]; in assay [2]; in assay [3]) was more than 133 µM in each case.
Turning to `C#C[C@]1(O)C=C[C@H]2[C@@H]3CCC4=CC(=O)CC[C@@H]4[C@H]3CC[C@@]21CC` [GESTODENE], the IC50 (at Bile salt export pump; in assay [1]; in assay [2]; in assay [3]) was more than 133 µM in each case.
Turning to `Cc1cn([C@@H]2C[C@@H](O)[C@H](CO)O2)c(=O)[nH]c1=O` [TELBIVUDINE], the IC50 (at Bile salt export pump; in assay [1]; in assay [2]; in assay [3]) was more than 133 µM each time.
As to `C[C@]12CC[C@H]3[C@@H](CC[C@@]45O[C@@H]4C(O)=C(C#N)C[C@]35C)[C@@H]1CC[C@@H]2O` [TRILOSTANE], the IC50 (on Bile salt export pump; in assay [1]; in assay [2]; in assay [3]) was more than 133 µM each time.
As for `C=C1C[C@@H]2[C@H](CC[C@]3(C)C(=O)CC[C@@H]23)[C@@]2(C)C=CC(=O)C=C12` [EXEMESTANE], the IC50 on Bile salt export pump was 90 µM; in assay [1], more than 133 µM; in assay [2] it was more than 133 µM; in assay [3] it was more than 133 µM.
`CNCCCN1c2ccccc2CCc2ccccc21` [DESIPRAMINE]: the IC50 (on Bile salt export pump; in assay [1]; in assay [2]; in assay [3]) was more than 133 µM throughout.
As to `O=C(O)Cc1ccc(-c2ccccc2)cc1` [FELBINAC], the concentration for half-maximal inhibition (IC50) on Bile salt export pump is more than 133 µM; in assay [1], 8.2 µM; in assay [2], more than 133 µM; in assay [3], more than 133 µM.
As to `NC(N)=Nc1nc(CSCCC(N)=NS(N)(=O)=O)cs1` [FAMOTIDINE], the half-maximal inhibitory concentration (IC50) (on Bile salt export pump; in assay [1]; in assay [2]; in assay [3]) was more than 133 µM in each case.
Take `c1ccc(-c2ccc(C(c3ccccc3)n3ccnc3)cc2)cc1` (stereo not given) [BIFONAZOLE]: the concentration for half-maximal inhibition (IC50) at Bile salt export pump is 27.1 µM; in assay [1], more than 133 µM; in assay [2] it was more than 133 µM; in assay [3] it was more than 133 µM.
`CCCSc1ccc2nc(NC(=O)OC)[nH]c2c1` [ALBENDAZOLE]: the half-inhibitory concentration (IC50) (at Bile salt export pump; in assay [1]; in assay [2]; in assay [3]) was more than 133 µM each time.
On to `CC(C)C(=O)Nc1ccc([N+](=O)[O-])c(C(F)(F)F)c1` [FLUTAMIDE], for which the 50% inhibitory concentration (IC50) (on Bile salt export pump; in assay [1]; in assay [2]; in assay [3]) was more than 133 µM each time.
In the case of `N=C(N)NCCCC[C@@H]1NC(=O)CCSSC[C@@H](C(N)=O)NC(=O)[C@@H]2CCCN2C(=O)[C@H](Cc2c[nH]c3ccccc23)NC(=O)[C@H](CC(=O)O)NC(=O)CNC1=O` ([Mpa][hArg]GDWPC-NH2; disulfide 1-7), the IC50 (on Bile salt export pump; in assay [1]; in assay [2]; in assay [3]) was more than 133 µM each time.
On to `COc1cc2nc(N3CCN(C(=O)C4CCCO4)CC3)nc(N)c2cc1OC` (stereo not given) [TERAZOSIN], for which the IC50 at Bile salt export pump was more than 133 µM; in assay [1], 36.8 µM; in assay [2], more than 133 µM; in assay [3], more than 133 µM.
